The record followed here is patent US7351398B2, “Stabilization of radiopharmaceutical compositions using hydrophilic thioethers” (CIS bio international, priority 2000, dated 2008).

Data set [1] can be described thus: HPLC RCP of 99mTc-labelled depreotide with hydrophilic thioether additives. Type of data set: physicochemical. The following applies: for 3.5 hr RCP / 6.5 hr RCP / Initial RCP: 99mTc-depreotide kit, additive 4 mg in 100 μL, heated. As for the experimental part: [drawing 16] These compounds and L-methionine were tested for their ability to stabilize ^99mTc-labelled depreotide. Each hydrophilic thioether was dissolved in water made up at 40 mg/mL and adjusted to pH 7 with HCl or NaOH. Each hydrophilic thioether (4 mg in 100 μL) was added to a formulated kit vial containing the peptide (“control” formulation in Table 1). To the control vials were added 100 μL water.

Data set [2] is described as follows: HPLC RCP of 99mTc-labelled depreotide kits with L-methionine. The following applies: formulated kits stored under normal conditions (≦−10° C.). The method, then: Lyophilized kit vials were prepared containing depreotide, L-methionine (Met), and other components as described in Table 3. All formulations were adjusted to pH 7.4 prior to lyophilization.
The lyophilized kits were radiolabelled with ^99mTc by reconstitution with 1.0 mL technetium ^99mTc sodium pertechnetate (Technelite®) containing approximately 50 mCi ^99mTc and heating in a boiling water bath for 10 minutes. Some of the formulations were also radiolabelled in a room temperature preparation (allowed to stand at room temperature 30 minutes following reconstitution).

Data set [3] in a line: HPLC RCP of 99mTc-labelled glycoprotein IIb/IIIa receptor-binding peptide with L-methionine. The data set is classed as physicochemical. The method, then:
L-methionine was tested for its ability to stabilize a ^99mTc-labelled glycoprotein IIb/IIIa receptor-binding peptide having the structure.
Lyophilized kit vials were prepared containing the peptide (50 μg), sodium glucoheptonate dihydrate (10 mg), stannous chloride dihydrate (50 μg), and edetate disodium dihydrate (100 μg). The formulation was adjusted to pH 7.4 prior to lyophilization.
The lyophilized kits were radiolabelled with ^99mTc in the presence and absence of L-methionine. To the Met preparation was added 4 mg methionine (in 100 μL saline) and 100 μL ethanol. To the control preparation was added 100 μL ethanol and 100 μL saline to account for the additional saline or ethanol added with the L-methionine. Both vials were then reconstituted with 1.0 mL technetium ^99mTc sodium pertechnetate (Technelite®) containing approximately 50 mCi ^99mTc and allowed to incubate for 30 minutes at room temperature.

The nature of data set [4]: HPLC RCP of 99mTc-labelled benzodiazepinedione derivative kits with L-methionine. The data set is classed as physicochemical. The following applies: formulated kits. The method, then: L-methionine was tested for its ability to stabilize a ^99mTc-labelled glycoprotein IIb/IIIa receptor-binding benzodiazepinedione derivative 1-[(carboxyglycyl-glycyl-glycyl-cysteinamide)methyl]-4-(2-carboxyethyl)-7-[(4-amidinophenyl)methyl]-3,4-dihydro-1H-1,4-benzodiazepine-2,5-dione trifluoroacetate, having the structure.
All formulations were adjusted to pH 7.4 prior to lyophilization.
The lyophilized kits were radiolabelled with ^99mTc by reconstitution with 1.0 mL technetium ^99mTc sodium pertechnetate (Technelite®) containing approximately 50 mCi ^99mTc and heating in a boiling water bath for 10 minutes.

Data set [5] can be described thus: HPLC RCP of 99mTc-labelled monoamine, diamide, single thiol peptide chelator with L-methionine. Type of data set: physicochemical. The method, then:
L-methionine was tested for its ability to stabilize a ^99mTc-labelled monoamine, diamide, single thiol peptide chelator having the structure.
Lyophilized kit “placebo” vials were prepared containing sodium glucoheptonate dihydrate, edetate disodium dihydrate, and stannous chloride dihydrate at the concentrations set forth in Table 1 (control formulation).
The peptide chelator was radiolabelled with ^99mTc in the presence and absence of L-methionine. The peptide chelator was dissolved in water at a concentration of 1 mg/mL, and 50 μg (50 μL) of the peptide was added to each of three placebo vials. Ethanol and L-methionine were added to the control and methionine preparations as described in Example 5. In addition, 100 μL phosphate buffered saline (PBS) was added to each preparation. The vials were reconstituted with 0.9-1.0 mL ^99mTc sodium pertechnetate (Technelite®) containing approximately 50 mCi ^99mTc, and heated in a boiling water bath for ten minutes.

The nature of data set [6]: HPLC RCP of 99mTc-labelled bisamine bisthiol non-peptide chelator with L-methionine. Type of data set: physicochemical. As for the experimental part: L-methionine was tested for its ability to stabilize a ^99mTc-labelled non-peptide chelator (4-(butanoic acid)-2,2,9,9 tetramethyl-4,7-diaza-1,10-decanedithiol) having the structure.
The non-peptide chelator was radiolabelled with ^99mTc in the presence and absence of L-methionine using the placebo vial heated preparation procedure as described in Example 6.

Data set [7] in a line: HPLC RCP of 99mTc-labelled depreotide kits with L-methionine after accelerated temperature (40° C.) kit storage. The data set is classed as physicochemical. To be noted: lyophilized kits stored at 40° C. prior to radiolabelling. As for the experimental part:
Lyophilized kits were prepared containing depreotide, L-methionine (Met), and other components as described in Table 5. All formulations were adjusted to pH 7.4 prior to lyophilization. The kits were stored for one week at 40° C. Some kits were also stored at −10° C. as controls.
The lyophilized kits were radiolabelled with ^99mTc by reconstitution with 1.0 mL technetium ^99mTc sodium pertechnetate (Technelite®) containing approximately 50 mCi ^99mTc and incubation in a boiling water bath (10 min).

Data set [8] is described as follows: Radiochemical purity (RCP) by reversed phase HPLC of 99mTc-labelled depreotide kits with gentisic acid. Type of data set: physicochemical. To be noted: included in formulated kits. The method, then: Lyophilized kit vials were prepared containing depreotide, GA, and other components as described in Table 1. Formulations were adjusted to pH 7.4 or 8.5 (as noted) prior to lyophilization.

As for `CCSCCN` [2-(Ethylthio)ethylamine], in data set [1], the “Effect on radiolabelling yield and stability of 99mTc-labelled peptide (depreotide)” value (“Effect … (depreotide)” for short) is listed as “increase”; the 3.5 hr RCP worked out at 94.2%; the 6.5 hr RCP is 93.3%; the Initial RCP came to 92.8%.

Turning to `CSCCC=O` [3-(methylthio)propionaldehyde, reference compound], in data set [1], the “Effect … (depreotide)” value is listed as “no effect”.

As to `CSCC(O)CO` (stereo not drawn) [3-Methylthio-1,2-propanediol, 3-methylthio-1,2-propanediol], in data set [1], the “Effect … (depreotide)” value is “increase”; the 3.5 hr RCP came to 84%; the 6.5 hr RCP turned out to be 80.9%; the Initial RCP turned out to be 89.1%.

As for `CSCC[C@H](N)C(=O)O` [L-methionine], the 3.5 hr RCP in data set [1] was 90.4%. For the same compound, the 6.5 hr RCP in data set [1] was 89.3%. The same compound registered an Initial RCP in data set [1] of 95%. Moreover, in data set [2], the “Effect on radiolabelling yield and stability of 99mTc-depreotide” value is reported as “increases”. In addition, in data set [3], the “Effect on radiolabelling yield and stability of the 99mTc-peptide” value is given as “increases”. Besides, the “HPLC RCP (%) 0.5 hr” value in data set [3] (99mTc-GPIIb/IIIa peptide, 4 mg methionine or none, room temperature 30 min, 0.5 hr) was 96.7%; in data set [5] (99mTc-peptide chelator, 4 mg L-methionine or none, heated, 0.5 hr), 98.4%; in data set [6] (99mTc-non-peptide chelator, 4 mg methionine or none, heated, 0.5 hr), 66.7%. The “HPLC RCP (%) 3.5 hr” value in data set [3] (99mTc-GPIIb/IIIa peptide, 4 mg methionine or none, room temperature 30 min, 3.5 hr) is 96.9%. Further, the “HPLC RCP (%) 6.5 hr” value in data set [3] (99mTc-GPIIb/IIIa peptide, 4 mg methionine or none, room temperature 30 min, 6.5 hr) came to 96.2%. Also, the “Effect on radiolabelling yield and stability of 99mTc-labelled benzodiazepinedione derivative” value in data set [4] is “increases”. In data set [5], the “Effect on radiolabelling yield and stability of 99mTc-labelled peptide chelator” value was “increases”. The “HPLC RCP (%) 3 hr” value was found to be 97.2% in data set [5] (99mTc-peptide chelator, 4 mg L-methionine or none, heated, 3 hr) and 70.0% in data set [6] (99mTc-non-peptide chelator, 4 mg methionine or none, heated, 3 hr). Also, the “HPLC RCP (%) 6 hr” value is recorded as 95.5% in data set [5] (99mTc-peptide chelator, 4 mg L-methionine or none, heated, 6 hr) and 70.8% in data set [6] (99mTc-non-peptide chelator, 4 mg methionine or none, heated, 6 hr). Moreover, the “HPLC RCP (%) 9 hr” value in data set [5] (99mTc-peptide chelator, 4 mg L-methionine or none, heated, 9 hr) stood at 92.8%; in data set [6] (99mTc-non-peptide chelator, 4 mg methionine or none, heated, 9 hr) it was 70.4%. For the same compound, the “Effect on radiolabelling yield and stability of 99mTc-labelled non-peptide chelator” value in data set [6] is “increases”. For the same compound, in data set [7], the “Stabilization of 99mTc-depreotide” value was “does not stabilize”.

With `C[S+]([O-])CC[C@H](N)C(=O)O` (stereo partly drawn) [Methionine sulfoxide, reference compound], the “Effect … (depreotide)” value in data set [1] is given as “no effect”.

`CSCC[C@H](N)CO` [Methioninol, methioninol]: in data set [1], the “Effect … (depreotide)” value was “increase”; the 3.5 hr RCP was determined as 93.9%; the 6.5 hr RCP is 90.7%; the Initial RCP came out at 94.1%.

`O=C(O)c1cc(O)ccc1O` [gentisic acid, Gentisic acid]: in data set [8], the “Effect on radiolabelling yield and stability of 99mTc-depreotide” value is listed as “decreases”.

With `CS(=O)(=O)CC[C@H](N)C(=O)O` [methionine sulfone, reference compound], the “Effect … (depreotide)” value in data set [1] is reported as “no effect”.
